In patent US12077503B2, “Substituted cyclic amides and their use as herbicides” (FMC CORPORATION, priority 2015, dated 2024):

Legend:
Type in all cases: in vivo
[1] = tested on: giant foxtail (Setaria faberii); assay: Test A preemergence
Outline: (§1)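 Ratings of 0 (no effect) to 100 (complete control) come from visual comparison with untreated controls roughly 10 d after treatment. Test chemicals, formulated in a non-phytotoxic solvent mixture with surfactant, were applied either as a preemergence directed soil spray on seeded soil or postemergence to one- to two-leaf plants 2 to 10 cm tall.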

[2] = tested on: Kochia (Kochia scoparia); assay: Test A preemergence
Outline: as §1

[3] = tested on: pigweed (Amaranthus retroflexus); assay: Test A preemergence
[4] = tested on: ryegrass, Italian (Italian ryegrass, Lolium multiflorum); assay: Test A preemergence
Outline: as §1

[5] = tested on: ragweed (common ragweed, Ambrosia elatior); assay: Test A preemergence
Outline: as §1

[6] = tested on: barnyardgrass (Echinochloa crus-galli); assay: Test A preemergence
Outline: as §1

[7] = tested on: ducksalad (Heteranthera limosa); assay: Test B flooded paddy test; conditions: 250 g ai/ha, Flood, 0 to 100 scale where 0 is no effect and 100 is complete control
Outline: (§2)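 Compound goes directly into floodwater once pots are flooded 3 cm above soil, targeting plants at two leaves; the water depth is then held for the test duration. Plants sit 13–15 d in a greenhouse and are rated visually, 100 denoting complete control.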

[8] = tested on: rice (Oryra sativa); assay: Test B flooded paddy test; conditions: 250 g ai/ha, Flood, 0 to 100 scale where 0 is no effect and 100 is complete control
Outline: as §2

[9] = tested on: sedge, umbrella (small-flower umbrella sedge, Cyperus difformis); assay: Test B flooded paddy test; conditions: 250 g ai/ha, Flood, 0 to 100 scale where 0 is no effect and 100 is complete control
Outline: as §2

[10] = tested on: barnyardgrass (Echinochloa crus-galli); assay: Test B flooded paddy test; conditions: 250 g ai/ha, Flood, 0 to 100 scale where 0 is no effect and 100 is complete control
Outline: as §2

[11] = tested on: corn (Zea mays); assay: Test A postemergence
Outline: as §1

[12] = tested on: giant foxtail (Setaria faberii); assay: Test A postemergence
Outline: as §1

[13] = tested on: Kochia (Kochia scoparia); assay: Test A postemergence
Outline: as §1

[14] = tested on: pigweed (Amaranthus retroflexus); assay: Test A postemergence
Outline: as §1

[15] = tested on: Galium (catchweed bedstraw, Galium aparine); assay: Test A postemergence
Outline: as §1

[16] = tested on: ryegrass, Italian (Italian ryegrass, Lolium multiflorum); assay: Test A postemergence
Outline: as §1

[17] = tested on: wheat (Triticum aestivum); assay: Test A postemergence
Outline: as §1

[18] = tested on: ragweed (common ragweed, Ambrosia elatior); assay: Test A postemergence
Outline: as §1

[19] = tested on: blackgrass (Alopecurus myosuroides); assay: Test A postemergence
Outline: as §1

[20] = tested on: barnyardgrass (Echinochloa crus-galli); assay: Test A postemergence
Outline: as §1

[21] = 125 g ai/ha, preemergence, 0 to 100 scale (0 no effect, 100 complete control)
[22] = Preemergence, 500 g ai/ha, visual injury approx. 10 d
[23] = 125 g ai/ha, postemergence, visual injury rating on 0 to 100 scale (0 no effect, 100 complete control), approx. 10 d
[24] = 500 g ai/ha, postemergence, 0 to 100 scale, 0 no effect, 100 complete control

CN1C[C@H](c2csc3c2CCOC3)[C@@H](C(=O)Nc2ccccc2S(C)(=O)=O)C1=O [Compound 1078]
pest or weed control at 31 g/ha ([1]; Setaria faberi, pre-emergence, 240 h, 31 g ai/ha, Preemergence, 0 to 100 scale where 0 is no effect and 100 is complete control, read-out: Foxtail, Giant plant response rating): 0% | pest or weed control at 125 g/ha ([1]; Setaria faberi, pre-emergence, 240 h, 125 g ai/ha, preemergence, 0 to 100 scale where 0 is no effect and 100 is complete control, approx. 10 d, read-out: Foxtail, Giant plant response rating): 0% | pest or weed control at 31 g/ha ([2]; Bassia scoparia, pre-emergence, 240 h, 31 g ai/ha, Preemergence, 0 to 100 scale where 0 is no effect and 100 is complete control, read-out: Kochia plant response rating): 0% | pest or weed control at 125 g/ha ([2]; Bassia scoparia, pre-emergence, 240 h, 125 g ai/ha, preemergence, 0 to 100 scale where 0 is no effect and 100 is complete control, approx. 10 d, read-out: Kochia plant response rating): 0% | pest or weed control at 31 g/ha ([3]; Amaranthus retroflexus, pre-emergence, 240 h, 31 g ai/ha, Preemergence, 0 to 100 scale where 0 is no effect and 100 is complete control, read-out: Pigweed plant response rating): 0% | pest or weed control at 125 g/ha ([3]; Amaranthus retroflexus, pre-emergence, 240 h, 125 g ai/ha, preemergence, 0 to 100 scale where 0 is no effect and 100 is complete control, approx. 10 d, read-out: Pigweed plant response rating): 0% | pest or weed control at 31 g/ha ([4]; Lolium multiflorum, pre-emergence, 240 h, 31 g ai/ha, Preemergence, 0 to 100 scale where 0 is no effect and 100 is complete control, read-out: Ryegrass, Italian plant response rating): 0% | pest or weed control at 125 g/ha ([4]; Lolium multiflorum, pre-emergence, 240 h, 125 g ai/ha, preemergence, 0 to 100 scale where 0 is no effect and 100 is complete control, approx. 10 d, read-out: Ryegrass, Italian plant response rating): 0% | pest or weed control at 31 g/ha ([5]; Ambrosia artemisiifolia, pre-emergence, 240 h, 31 g ai/ha, Preemergence, 0 to 100 scale where 0 is no effect and 100 is complete control, read-out: Ragweed plant response rating): 0% | pest or weed control at 125 g/ha ([5]; Ambrosia artemisiifolia, pre-emergence, 240 h, 125 g ai/ha, preemergence, 0 to 100 scale where 0 is no effect and 100 is complete control, approx. 10 d, read-out: Ragweed plant response rating): 0% | pest or weed control at 31 g/ha ([6]; Echinochloa crus-galli, pre-emergence, 240 h, 31 g ai/ha, Preemergence, 0 to 100 scale where 0 is no effect and 100 is complete control, read-out: Barnyardgrass plant response rating): 0% | pest or weed control at 125 g/ha ([6]; Echinochloa crus-galli, pre-emergence, 240 h, 125 g ai/ha, preemergence, 0 to 100 scale where 0 is no effect and 100 is complete control, approx. 10 d, read-out: Barnyardgrass plant response rating): 0% | pest or weed control at 250 g/ha ([7]; Heteranthera limosa, read-out: Ducksalad plant response rating): 0% | pest or weed control at 250 g/ha ([8]; Oryza sativa, read-out: Rice plant response rating): 0% | pest or weed control at 250 g/ha ([9]; Cyperus difformis, read-out: Sedge, Umbrella plant response rating): 0% | pest or weed control at 250 g/ha ([10]; Echinochloa crus-galli, read-out: Barnyardgrass plant response rating): 30% | plant injury at 125 g/ha ([11]; Zea mays, post-emergence, 240 h, 125 g ai/ha, postemergence, visual injury on 0 to 100 scale (0 no effect, 100 complete control), approx. 10 d, read-out: Corn plant response rating): 0% | Corn plant response rating (crop injury, 0 = no effect, 100 = complete kill) at 31 g/ha ([11]; Zea mays, post-emergence, 240 h, Postemergence, 31 g ai/ha, visual injury after approx. 10 d, 0 to 100 scale, 0 no effect, 100 complete control): 0% | pest or weed control at 125 g/ha ([12]; Setaria faberi, post-emergence, 240 h, 125 g ai/ha, postemergence, visual injury on 0 to 100 scale (0 no effect, 100 complete control), approx. 10 d, read-out: Foxtail, Giant plant response rating): 0% | pest or weed control at 31 g/ha ([12]; Setaria faberi, post-emergence, 240 h, Postemergence, 31 g ai/ha, visual injury after approx. 10 d, 0 to 100 scale, 0 no effect, 100 complete control, read-out: Plant response rating, Foxtail, Giant): 0% | pest or weed control at 125 g/ha ([13]; Bassia scoparia, post-emergence, 240 h, 125 g ai/ha, postemergence, visual injury on 0 to 100 scale (0 no effect, 100 complete control), approx. 10 d, read-out: Kochia plant response rating): 0% | pest or weed control at 31 g/ha ([13]; Bassia scoparia, post-emergence, 240 h, Postemergence, 31 g ai/ha, visual injury after approx. 10 d, 0 to 100 scale, 0 no effect, 100 complete control, read-out: Plant response rating, Kochia): 0% | pest or weed control at 125 g/ha ([14]; Amaranthus retroflexus, post-emergence, 240 h, 125 g ai/ha, postemergence, visual injury on 0 to 100 scale (0 no effect, 100 complete control), approx. 10 d, read-out: Pigweed plant response rating): 0% | pest or weed control at 31 g/ha ([14]; Amaranthus retroflexus, post-emergence, 240 h, Postemergence, 31 g ai/ha, visual injury after approx. 10 d, 0 to 100 scale, 0 no effect, 100 complete control, read-out: Plant response rating, Pigweed): 0% | pest or weed control at 125 g/ha ([15]; Galium, post-emergence, 240 h, 125 g ai/ha, postemergence, visual injury on 0 to 100 scale (0 no effect, 100 complete control), approx. 10 d, read-out: Galium plant response rating): 0% | pest or weed control at 31 g/ha ([15]; Galium, post-emergence, 240 h, Postemergence, 31 g ai/ha, visual injury after approx. 10 d, 0 to 100 scale, 0 no effect, 100 complete control, read-out: Plant response rating, Galium): 0% | pest or weed control at 125 g/ha ([16]; Lolium multiflorum, post-emergence, 240 h, 125 g ai/ha, postemergence, visual injury on 0 to 100 scale (0 no effect, 100 complete control), approx. 10 d, read-out: Ryegrass, Italian plant response rating): 0% | pest or weed control at 31 g/ha ([16]; Lolium multiflorum, post-emergence, 240 h, Postemergence, 31 g ai/ha, visual injury after approx. 10 d, 0 to 100 scale, 0 no effect, 100 complete control, read-out: Plant response rating, Ryegrass, Italian): 0% | plant injury at 125 g/ha ([17]; Triticum aestivum, post-emergence, 240 h, 125 g ai/ha, postemergence, visual injury on 0 to 100 scale (0 no effect, 100 complete control), approx. 10 d, read-out: Wheat plant response rating): 0% | plant injury at 31 g/ha ([17]; Triticum aestivum, post-emergence, 240 h, Postemergence, 31 g ai/ha, visual injury after approx. 10 d, 0 to 100 scale, 0 no effect, 100 complete control, read-out: Plant response rating, Wheat): 0% | pest or weed control at 125 g/ha ([18]; Ambrosia artemisiifolia, post-emergence, 240 h, 125 g ai/ha, postemergence, visual injury on 0 to 100 scale (0 no effect, 100 complete control), approx. 10 d, read-out: Ragweed plant response rating): 0% | pest or weed control at 31 g/ha ([18]; Ambrosia artemisiifolia, post-emergence, 240 h, Postemergence, 31 g ai/ha, visual injury after approx. 10 d, 0 to 100 scale, 0 no effect, 100 complete control, read-out: Plant response rating, Ragweed): 0% | pest or weed control at 125 g/ha ([19]; Alopecurus myosuroides, post-emergence, 240 h, 125 g ai/ha, postemergence, visual injury on 0 to 100 scale (0 no effect, 100 complete control), approx. 10 d, read-out: Blackgrass plant response rating): 0% | pest or weed control at 31 g/ha ([19]; Alopecurus myosuroides, post-emergence, 240 h, Postemergence, 31 g ai/ha, visual injury after approx. 10 d, 0 to 100 scale, 0 no effect, 100 complete control, read-out: Plant response rating, Blackgrass): 0% | pest or weed control at 125 g/ha ([20]; Echinochloa crus-galli, post-emergence, 240 h, 125 g ai/ha, postemergence, visual injury on 0 to 100 scale (0 no effect, 100 complete control), approx. 10 d, read-out: Barnyardgrass plant response rating): 10% | pest or weed control at 31 g/ha ([20]; Echinochloa crus-galli, post-emergence, 240 h, Postemergence, 31 g ai/ha, visual injury after approx. 10 d, 0 to 100 scale, 0 no effect, 100 complete control, read-out: Plant response rating, Barnyardgrass): 0%

Cc1ccc(C2CN(C)C(=O)C2C(=O)Nc2ccccc2F)cc1F (stereo not drawn) [Compound 465]
Plant response rating, Foxtail, Giant [1, 21]: 100 | Foxtail, Giant plant response rating (0 to 100 scale, 0 is no effect, 100 is complete control) [1, 22]: 100 | Plant response rating, Kochia [2, 21]: 80 | Kochia plant response rating (0 to 100 scale, 0 is no effect, 100 is complete control) [2, 22]: 80 | Plant response rating, Pigweed [3, 21]: 50 | Pigweed plant response rating (0 to 100 scale, 0 is no effect, 100 is complete control) [3, 22]: 70 | Plant response rating, Ryegrass, Italian [4, 21]: 70 | Ryegrass, Italian plant response rating (0 to 100 scale, 0 is no effect, 100 is complete control) [4, 22]: 70 | Plant response rating, Ragweed [5, 21]: 40 | Ragweed plant response rating (0 to 100 scale, 0 is no effect, 100 is complete control) [5, 22]: 70 | Plant response rating, Barnyardgrass [6, 21]: 90 | Barnyardgrass plant response rating (0 to 100 scale, 0 is no effect, 100 is complete control) [6, 22]: 100 | Plant response rating, Ducksalad ([7]; 13 to 15 d): 100 | Plant response rating, Rice ([8]; 13 to 15 d): 0 | Plant response rating, Sedge, Umbrella ([9]; 13 to 15 d): 0 | Plant response rating, Barnyardgrass ([10]; 13 to 15 d): 80 | Corn plant response rating [11, 23]: 80 | Plant response rating, Corn [11, 24]: 90 | Foxtail, Giant plant response rating [12, 23]: 90 | Plant response rating, Foxtail, Giant [12, 24]: 90 | Kochia plant response rating [13, 23]: 50 | Plant response rating, Kochia [13, 24]: 60 | Pigweed plant response rating [14, 23]: 0 | Plant response rating, Pigweed [14, 24]: 20 | Galium plant response rating [15, 23]: 60 | Plant response rating, Galium [15, 24]: 60 | Ryegrass, Italian plant response rating [16, 23]: 60 | Plant response rating, Ryegrass, Italian [16, 24]: 70 | Wheat plant response rating [17, 23]: 60 | Plant response rating, Wheat [17, 24]: 70 | Ragweed plant response rating [18, 23]: 0 | Plant response rating, Ragweed [18, 24]: 30 | Blackgrass plant response rating [19, 23]: 40 | Plant response rating, Blackgrass [19, 24]: 70 | Barnyardgrass plant response rating [20, 23]: 90 | Plant response rating, Barnyardgrass [20, 24]: 90
